We go through four compounds from ChEMBL document CHEMBL1201862, “PubChem BioAssay data set” (2004).

Assay [1] deals with T1, Sentrin-specific protease 7 (Homo sapiens, UniProt Q9BQF6).
T1 sequence (Q9BQF6 whole entry): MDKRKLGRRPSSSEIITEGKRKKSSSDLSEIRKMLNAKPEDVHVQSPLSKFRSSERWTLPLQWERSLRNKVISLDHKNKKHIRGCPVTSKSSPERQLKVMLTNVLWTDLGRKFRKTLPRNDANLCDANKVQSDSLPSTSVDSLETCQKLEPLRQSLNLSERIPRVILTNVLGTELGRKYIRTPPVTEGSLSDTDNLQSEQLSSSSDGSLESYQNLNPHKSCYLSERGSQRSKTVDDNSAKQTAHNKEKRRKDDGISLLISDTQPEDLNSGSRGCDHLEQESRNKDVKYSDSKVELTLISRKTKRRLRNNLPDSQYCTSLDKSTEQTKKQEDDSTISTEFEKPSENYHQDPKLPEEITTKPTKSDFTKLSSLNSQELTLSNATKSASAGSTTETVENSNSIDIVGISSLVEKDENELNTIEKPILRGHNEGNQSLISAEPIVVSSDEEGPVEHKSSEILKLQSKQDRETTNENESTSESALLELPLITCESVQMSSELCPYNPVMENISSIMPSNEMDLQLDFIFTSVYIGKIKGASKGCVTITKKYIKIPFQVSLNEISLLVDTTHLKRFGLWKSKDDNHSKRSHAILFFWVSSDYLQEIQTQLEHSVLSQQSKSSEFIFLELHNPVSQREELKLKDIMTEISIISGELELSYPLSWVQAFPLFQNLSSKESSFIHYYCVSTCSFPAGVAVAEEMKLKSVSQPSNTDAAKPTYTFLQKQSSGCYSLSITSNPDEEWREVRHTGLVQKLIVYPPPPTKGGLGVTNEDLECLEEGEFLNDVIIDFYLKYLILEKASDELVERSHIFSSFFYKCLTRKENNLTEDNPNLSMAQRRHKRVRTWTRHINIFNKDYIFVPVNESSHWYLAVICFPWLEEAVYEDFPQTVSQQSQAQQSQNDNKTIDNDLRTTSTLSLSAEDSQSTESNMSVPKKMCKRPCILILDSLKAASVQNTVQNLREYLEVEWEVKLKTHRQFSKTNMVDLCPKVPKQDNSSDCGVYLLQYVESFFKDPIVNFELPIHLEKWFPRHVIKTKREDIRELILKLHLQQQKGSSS
It is filed as functional.

In assay [2] the target is T2, Sentrin-specific protease 6 (Homo sapiens, UniProt Q9GZR1).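 Note: Luminescence-based dose-response confirmatory assay of SENP6 inhibition, following up an ultra-high-throughput screen.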
T2 sequence (Q9GZR1 whole entry): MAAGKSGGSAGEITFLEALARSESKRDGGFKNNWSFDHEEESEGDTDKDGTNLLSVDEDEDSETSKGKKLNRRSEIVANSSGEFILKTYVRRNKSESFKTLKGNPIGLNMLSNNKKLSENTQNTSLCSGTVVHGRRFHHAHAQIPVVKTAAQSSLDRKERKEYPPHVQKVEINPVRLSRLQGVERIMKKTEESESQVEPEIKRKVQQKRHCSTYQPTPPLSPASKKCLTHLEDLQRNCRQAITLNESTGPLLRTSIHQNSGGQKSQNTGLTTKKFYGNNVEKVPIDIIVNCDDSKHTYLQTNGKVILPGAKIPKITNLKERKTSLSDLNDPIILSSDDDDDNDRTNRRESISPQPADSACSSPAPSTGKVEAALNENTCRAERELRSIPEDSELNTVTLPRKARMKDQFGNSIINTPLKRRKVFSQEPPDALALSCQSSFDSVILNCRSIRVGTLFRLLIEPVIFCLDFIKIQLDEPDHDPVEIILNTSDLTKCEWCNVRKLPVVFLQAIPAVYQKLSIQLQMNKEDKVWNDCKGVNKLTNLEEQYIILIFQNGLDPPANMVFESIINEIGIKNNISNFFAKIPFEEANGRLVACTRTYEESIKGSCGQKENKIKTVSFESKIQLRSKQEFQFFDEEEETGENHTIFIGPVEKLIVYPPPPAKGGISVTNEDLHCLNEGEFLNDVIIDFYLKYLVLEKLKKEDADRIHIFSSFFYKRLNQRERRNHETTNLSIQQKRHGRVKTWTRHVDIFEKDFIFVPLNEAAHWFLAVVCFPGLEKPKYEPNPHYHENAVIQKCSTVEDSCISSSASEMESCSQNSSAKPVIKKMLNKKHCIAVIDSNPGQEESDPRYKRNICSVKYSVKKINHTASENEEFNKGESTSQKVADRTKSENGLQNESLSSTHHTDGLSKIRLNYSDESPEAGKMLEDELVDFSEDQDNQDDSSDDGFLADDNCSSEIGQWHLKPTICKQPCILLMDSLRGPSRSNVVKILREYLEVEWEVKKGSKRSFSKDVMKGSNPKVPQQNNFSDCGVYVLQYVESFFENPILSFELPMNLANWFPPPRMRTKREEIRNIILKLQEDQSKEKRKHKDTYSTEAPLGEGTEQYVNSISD
It is filed as functional.

For the next assay, the target named is T3, Caspase-3 (Homo sapiens, UniProt P42574).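 Note: Dose-response selectivity test against caspase-3 for candidate inhibitors of sentrin-specific proteases (SENPs).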
T3 sequence (P42574 whole entry): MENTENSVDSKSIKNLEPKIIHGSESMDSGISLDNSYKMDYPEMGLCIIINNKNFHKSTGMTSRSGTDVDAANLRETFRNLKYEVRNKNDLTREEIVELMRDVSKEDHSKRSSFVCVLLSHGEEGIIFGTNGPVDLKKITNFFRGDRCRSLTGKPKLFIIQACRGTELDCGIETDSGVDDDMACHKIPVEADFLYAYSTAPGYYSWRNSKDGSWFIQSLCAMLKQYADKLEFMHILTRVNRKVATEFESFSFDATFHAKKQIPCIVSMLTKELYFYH
It is filed as functional.

The target of assay [3] is T4, Sentrin-specific protease 8 (Homo sapiens, UniProt Q96LD8).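 Note: luminescence read-out of SENP8 inhibition, dose-response confirmation following an ultra-high-throughput screen.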
T4 sequence (Q96LD8 whole entry): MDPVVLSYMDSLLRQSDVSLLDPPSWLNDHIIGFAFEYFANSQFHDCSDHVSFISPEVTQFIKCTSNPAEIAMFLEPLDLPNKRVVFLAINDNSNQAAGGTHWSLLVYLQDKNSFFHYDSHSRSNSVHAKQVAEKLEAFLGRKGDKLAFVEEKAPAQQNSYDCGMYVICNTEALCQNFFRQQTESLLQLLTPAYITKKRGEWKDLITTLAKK
It is filed as functional.

The nature of assay [4]: SK-MEL-5 parental cell viability reduction, dose response, orthogonal assay for MITF inhibitor project, CellTiter-Glo luminescence, dry powder, set 8 (AID 651586). It is filed as functional, cell-based. Background: In ATP-based viability assays light output follows the ATP content of the culture.
Assay [5] can be described thus: growth suppression of beta-catenin-knockout colon cells, dose response, cell-based, HCT116, human colon tumor (AID 1045).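 Note: HCT116 colon tumor cells with beta catenin knocked out; cells exposed to compound for 60 hours.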 It is filed as functional.
The nature of assay [6]: Counterscreen for antagonists of the orexin 1 receptor (OX1R; HCRTR1): Fluorescence-based cell-based high throughput dose response assay to identify antagonists of the parental CHO cell line. [Related pubchem assays (depositor defined):AID434989, AID435008, AID463079, AID485270, AID492963, AID492964, AID492965, AID493232, AID504699, AID504701]. It is filed as functional.

Assay [7] has as its target Serine/threonine-protein kinase 3 (Homo sapiens, UniProt Q13188). It is filed as functional.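 Note: measured as one member of a kinome-wide kinase panel.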

Each structure is given as a SMILES string. The source made the active and inactive calls.

Chain of Serine/threonine-protein kinase 3 (Q13188 whole entry): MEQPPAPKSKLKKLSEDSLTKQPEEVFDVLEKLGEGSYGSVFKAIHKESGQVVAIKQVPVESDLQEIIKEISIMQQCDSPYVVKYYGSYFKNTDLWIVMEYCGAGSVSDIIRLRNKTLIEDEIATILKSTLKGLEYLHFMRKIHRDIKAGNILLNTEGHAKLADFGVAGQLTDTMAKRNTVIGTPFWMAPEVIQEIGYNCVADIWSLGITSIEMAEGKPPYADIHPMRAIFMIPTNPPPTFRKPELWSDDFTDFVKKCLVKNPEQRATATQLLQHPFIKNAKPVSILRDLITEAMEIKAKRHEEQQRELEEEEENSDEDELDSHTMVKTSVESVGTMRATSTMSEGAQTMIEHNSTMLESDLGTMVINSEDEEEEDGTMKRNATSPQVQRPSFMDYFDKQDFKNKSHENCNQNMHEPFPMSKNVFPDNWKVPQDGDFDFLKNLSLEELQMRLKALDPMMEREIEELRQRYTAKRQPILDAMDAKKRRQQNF

By IC50 is commonly meant the concentration at which inhibition is half-maximal. The term AC50 denotes the midpoint of the concentration-response curve, whichever way the signal moves. Consider `C=CCNC1=C(Cl)C(=O)c2ccccc2C1=O`, for which the IC50 in assay [1] was 23.9 µM (active); in assay [2], 9.07 µM (active); at Caspase-3, 3.62 µM (active); in assay [3] it was 10.1 µM (active). Moreover, in assay [4], the AC50 is 4.58 µM (active).

The EC50 is the concentration at which the effect is half-maximal. Take `CCOC(=O)C(C(=O)OCC)c1cc(Br)c2noc3c2c1C(=O)c1ccccc1-3`: in assay [5], the EC50 is 4.39 µM (active).

Regarding `CN(C)c1ccc(-c2nnc(-c3cccs3)o2)cc1`, the IC50 in assay [6] was > 49.7 µM (inactive); in assay [1], 12.9 µM (active); in assay [2], > 100 µM (inactive); on Caspase-3, 22.3 µM (active); in assay [3] it was > 100 µM (inactive).

The Ki is the dissociation constant of the complex between target and ligand, obtained from inhibition or displacement. In the case of `COc1ccc(C(=O)Nc2n[nH]c3ccc(-c4cn(Cc5ccccc5)nn4)cc23)cc1OC`, in assay [7], the Ki is 0.794 µM (active).
